Values quoted from earlier work as cited in patent US20130323309A1, “Sustained Release Composition of Memantine” (LUPIN LIMITED, priority 2011, published 2013).

Settings: aqueous media and polar solvents; memantine or a pharmaceutically acceptable salt

## CC12CC3CC(C)(C1)CC(N)(C3)C2 [Memantine, 1-amino-3,5-dimethyladamantane]
  Solubility: highly soluble
